# Data reported in patent publication US8614222B2, “Methods of preventing and treating low bone mass diseases” (The Trustees of Columbia University in the City of New York, priority 2008, dated 2013).
# “Also recorded” adds a separate entry of the source.
# B1: PTH: recombinant human PTH, intermittent s.c. injections, standard to which bone anabolic agents are compared (protein, UniProt P01270 32-115, looked up)
# Parathyroid hormone: SVSEIQLMHNLGKHLNSMERVEWLRKKLQDVHNFVALGAPLAPRDAGSQRPRKKEDNVLVESHEKSLGEADKADVNVLTKAKSQ
# modifications: Parathyroid hormone
# notes: recombinant human PTH, intermittent s.c. injections, standard to which bone anabolic agents are compared
# How the values were obtained:
# rb 5-HT1B receptors = rb 5-HT1B receptors (Oryctolagus cuniculus, UniProt P49144); settings: cited from earlier work
# primary osteoblasts = experiment: Real-time PCR of gene expression in primary osteoblasts treated with serotonin; assay type: cell-based, mouse; settings: serotonin 50 to 100 μM, 24 hr
# Experimental: Calvaria osteoblasts were extracted by triple collagenase/trypsine digestion from 4 day-old CD1 pups and differentiated with ascorbic acid as previously described (Duey et al., 2000, Cell 100:197-207).
# (§1) Osteoblasts were treated in serum-free medium with vehicle or Serotonin (50 to 100 μM, Sigma) for 24 hr. Total RNA were extracted with Trizol (Invitrogen). cDNA were generated using the ABI Reverse transcriptase system and random hexanucleotide primers. Real-time PCR was performed using superarray primers on a Stratagene real time PCR cycler and Actin expression was used as endogenous control. Chromatin immunoprecipitation assays (ChIP) were performed by standard procedures using primary osteoblasts. Microarray analysis was performed as described previously (Glass et al., 2005, Dev. Cell 8:751-764).
# CREB = CREB phosphorylation (Western blot) and CREB binding to Cyclin D1 promoter (ChIP) in primary osteoblasts; assay type: cell-based, mouse
# Experimental: as §1
# Osteoblasts were treated in serum-free medium with vehicle or Serotonin (50 to 100 μM, Sigma) for 24 hr. Lysates from primary osteoblasts or crushed frozen bones were prepared in RIPA buffer in the presence of protease and phosphatase inhibitors. Twenty to 60 μg of proteins were separated by SDS-PAGE in reducing conditions and transferred on nitrocellulose membrane using standard protocols. Membranes were incubated with primary antibodies including total or anti-Phospho CREB (Cell Signaling Technology).
# peripheral serotonin [1] = experiment: Effect of CBMIDA and pCPA on peripheral (serum) serotonin in mice (Example 1); assay type: in vivo; settings: for reduction of peripheral (serum) serotonin: 250 mg/kg orally
# Experimental: One month old C57B1/6 inbred male mice, weighing 15-16 g were used in the experiments. Animals were housed under 12 h light/12 h dark conditions in a room with controlled temperature (22° C.) and humidity (60%). Mice had ad libitum access to food and water, and were used after a minimum of 4 days of acclimatization to the housing conditions. All experiments were conducted following Columbia University Guidelines for the Animal Use and Care of laboratory mice.
# (§2) Before the experiments, animals were separated into individual cages one day prior to the experiment. Compounds were fed orally (gavage) to the mouse, calculated according to the weight of the mouse, twice a day at 1700 h and at 1100 h. […] This route created two potential barriers for the compound to reach the brain. […] Control animals received the same volume of vehicle. Blood was collected through heart puncture on isofluorane-anaesthesized animals and allowed to clot for 5 minutes on ice. The serum was separated, snap chilled in liquid nitrogen and frozen at −80° C. till analyzed. Brainstems from all the animals were collected and processed for brain serotonin measurement through HPLC.
# The Serotonin ELISA kit obtained from the Fitzgerald company was used to measure derivatized serotonin from serum. Derivatization is part of the sample preparation. Serotonin present in the serum was first quantitatively acylated into N-Acylserotonin using the acylation reagent. The principle of the assay is based on competitive ELISA, wherein serotonin that is bound to the solid phase of the plate and the N-acylserotonin compete for the fixed number of antiserum binding sites. When the reaction is in equilibrium, free antigen and free antigen-antiserum complexes are removed by washing.
# The antibody bound to the solid phase serotonin is then detected using antirabbit/peroxidase. The substrate TMB/Peroxidase reaction is read at 450 nm. The amount of antibody bound to the solid phase serotonin is inversely proportional to the concentration of serotonin in the sample.
# Catechol-3,6-bis methyleneiminodiacetic acid (CBMIDA) (basic structure is an EDTA-like compound and the catechol ring is at the centre) synthesized at the Columbia University Chemistry division, and para-chlorophenylalanine (pCPA) obtained from Sigma Aldrich Corp. were used. Each compound was dissolved with twice molar solution of NaHCO3 in water and given to mouse orally at 250 and 500 mg/kg/dose.
# brain serotonin = experiment: Brain serotonin / blood brain barrier after oral pCPA in mice; assay type: in vivo; settings: 250 mg/kg orally
# Experimental: as §2
# Lrp5−/− mice = experiment: pCPA treatment of Lrp5−/− and WT mice; assay type: in vivo
# Experimental: Consistent with the conclusion that the increase in serum serotonin level is responsible fully or partly for the bone phenotype of the Lrp5−/− mice is the discovery that pCPA, a serotonin synthesis inhibitor (Eldridge et al., 1981, Ann. Rev. Physiol. 43:121-135), prevented the appearance of the Lrp5−/− bone phenotype by decreasing serotonin production. WT and Lrp5−/− mice were treated with 300 mg/kg pCPA intraperitoneally three times per week, from 3 weeks to 12 weeks of age (FIG. 7A) and the changes in serum serotonin levels, TPH1 expression in gut and TPH2 expression in brain stem were analyzed. Bone histomorphometry was also performed. […] This rescue of the Lrp5−/− phenotype was achieved by normalization of the gut TPH1 mRNA and of serum serotonin levels (FIGS. 7C and 7D).
# Generation of Lrp5−/− (Kato et al., 2002, J. Cell Biol. 157:303-314) β-cateninfloxed/floxed (Glass et al., 2005, Dev. Cell 8:751-764), α1(I)collagen-cre transgenic (Dacquin et al., 2002, Dev. Dyn. 224:245-251) and Htt−/− (Ansorge et al., 2008, J. Neurosci. 28:199-207) mice were as described previously. Lrp5+/−;Htt+/− double heterozygous mice were generated by crossing Lrp5+/− and Htt+/− mice. Three week-old Wt or Lrp5−/− mice were administered pCPA on alternate days for 9 weeks by i.p. All animal protocols were approved by the Animal Care Committees of Columbia University.
# Static histomorphometry measurements were performed as previously described in accordance with standard nomenclature, using the Osteomeasure Analysis System (Osteometrics, Inc) (Ducy et al., 2000, Cell 100:197-207). Four to 9 animals were assigned per group.
# (§3) Serotonin serum levels were quantified using immunoassay kits from Fitzgerald (Serotonin) and serotonin levels in the different regions of the brain were quantified by HPLC method as described previously (Mann et al., 1992, Arch. Gen. Psychiatry 49:442-446).
# peripheral serotonin [2] = experiment: Peripheral serotonin levels in wild-type mice (Example 11); assay type: in vivo; settings: 5 mice per compound
# Experimental: as §3
# The following three compounds were tested for their ability to effect peripheral serotonin levels in wild-type mice:
# Also tested as a negative control was vehicle alone. Each compound as well as vehicle was administered to 5 mice and the resulting peripheral serotonin levels were as follows: […]
# ovariectomized rats = experiment: Curative regimen in ovariectomized rats (histomorphometry, μCT, biomechanical testing); assay type: in vivo; settings: OVX rats
# Experimental: Virgin female Sprague-Dawley rats (National Institute of Nutrition, Hyderabad, India) were obtained at 3 months of age and allowed to acclimate to the facility for 1 week before study initiation and surgical procedures. They were housed under a 12 hour:12 hour light:dark cycle and provided throughout the study with water and PMI (Purina Mills, Incorporated) Certified Rodent Laboratory Chow. Rats were subjected to either bilateral ovariectomy or a sham operation under isoflurane anesthesia. […] The rats were divided into two groups of sham-operated and ovariectomized animals and left untreated for 3 weeks to allow bone loss to occur. One group of sham and one group of ovariectomized rats (n=10/group) were killed as baseline controls to determine bone loss before the start of LP-533,401 or PTH administration. The remaining animals (n=5-10/group) received vehicle or LP-533,401 (250 mg/kg/day) by gavage, or recombinant human PTH (80 ug/kg) by daily subcutaneous (s.c.) injection for 4 weeks. The 80 ug/kg dose of PTH was selected as being optimal for reversal of ovariectomy-induced bone loss in rats based on previous studies, while the dose of LP-533,401 was selected based on the effective dose for bone loss-reversal observed in mice experiments. To label bone-forming surfaces, animals were injected s.c. with calcein (8 mg/kg) at 10 and 3 days before death. Animals were killed by an overdose of Isofluorane anesthesia. The right tibia and lumbar vertebra 2 (L2) were collected, cleaned of excess soft tissue, fixed overnight in 10% formalin and processed for μCT or histomorphometric analysis. The right femur and L3 were cleaned of excess tissue and stored at −20° C. prior to biomechanical testing.
# Bone histomorphometry was performed as previously described (Duey et al., 2000, Cell 100:197-207; Takeda et al., 2002, Cell 111:305-317; Parfitt et al., 1987, J. Bone Miner. Res. 2:595-610). Briefly, lumbar vertebrae were dissected, fixed for 24 hr in 10% formalin, dehydrated in graded ethanol series, and embedded in methyl methacrylate resin according to standard protocols (Parfitt et al., 1987, J. Bone Miner. Res. 2:595-610). Von Kossa/Von Gieson staining was performed using 7 μm sections for bone volume over tissue volume (BV/TV) measurement. Bone formation rate (BFR) was analyzed by the calcein double-labeling method (Ducy et al., 2000, Cell 100:197-207). Calcein (Sigma Chemical Co., St. Louis, Mo.) was dissolved in calcein buffer (0.15 M NaCl, 2% NaHCO3) and injected twice at 0.125 mg/g body weight on day 1 and 4, and then mice were killed on day 6. Unstained 4 μm sections were used for bone formation rate (BFR) measurements. For the analysis of parameters of osteoblasts and osteoclasts, 4 μm sections were stained with toluidine blue and tartrate-resistant acid phosphatase (TRAP), respectively (2). Histomorphometric analyses were performed using the Osteomeasure Analysis System (Osteometrics, Atlanta, Ga.).
# Trabecular bone architecture of proximal tibia was assessed using a micro computed tomography (μCT) system (VivaCT 40, SCANCO Medical AG, Bassersdorf, Switzerland). Tibia bone specimen was stabilized with gauze in a 2 ml centrifuge tube filled with 70% ethanol and fastened in the specimen holder of the μCT scanner. One hundred μCT slices, corresponding to a 1.05 mm region distal from the growth plate, were acquired at an isotropic spatial resolution of 10.5 μm. A global thresholding technique was applied to binarize gray-scale μCT images where the minimum between the bone and bone marrow peaks in the voxel gray value histogram was chosen as the threshold value. The trabecular bone compartment was segmented by a semi-automatic contouring method and subjected to a model-independent morphological analysis (Hildebrand et al., 1999, J. Bone Miner. Res. 14:1167-1174) by the standard software provided by the manufacture of the μCT scanner. […]
# [3] = 300 mg/kg i.p. three times per week, 3 to 12 weeks of age
# [4] = LP-533,401 250 mg/kg/day, PTH 80 μg/kg/day
# rb 5-HT1B receptors, sequence (P49144 whole entry): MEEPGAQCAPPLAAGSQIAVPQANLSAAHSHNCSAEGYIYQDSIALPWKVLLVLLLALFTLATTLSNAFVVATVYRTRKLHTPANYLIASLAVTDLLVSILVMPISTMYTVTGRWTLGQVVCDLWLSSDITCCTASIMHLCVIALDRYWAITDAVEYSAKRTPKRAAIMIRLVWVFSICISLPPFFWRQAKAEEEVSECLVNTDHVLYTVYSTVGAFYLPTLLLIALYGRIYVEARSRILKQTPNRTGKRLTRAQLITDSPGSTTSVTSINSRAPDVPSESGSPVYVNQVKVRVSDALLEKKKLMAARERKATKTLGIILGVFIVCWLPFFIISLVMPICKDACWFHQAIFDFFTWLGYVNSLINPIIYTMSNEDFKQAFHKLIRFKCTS
molecule,measurement,setting,value
CSc1ccc2c(c1)C(N1CCN(C)CC1)Cc1ccccc1S2 (stereo not shown) [methiothepin],behaviour at rb 5-HT1B receptors,rb 5-HT1B receptors,"as silent, competitive antagonists"
O=C(c1ccc(F)cc1)C1CCN(CCn2c(=O)[nH]c3ccccc3c2=O)CC1 [ketanserin],behaviour at rb 5-HT1B receptors,rb 5-HT1B receptors,"as silent, competitive antagonists"
"NCCc1c[nH]c2ccc(O)cc12 [serotonin, 5-hydroxytryptamine]",expression of Cyclin D1,primary osteoblasts,decreased
same,expression of Cyclin D2,primary osteoblasts,decreased
same,expression of Osteocalcin,primary osteoblasts,not modified
same,expression of Runx2,primary osteoblasts,not modified
same,expression of Type I collagen,primary osteoblasts,not modified
same,CREB phosphorylation,CREB,significantly decreased
same,binding of CREB to the Cyclin D1 promoter (ChIP),CREB,decreased
"NC(Cc1ccc(Cl)cc1)C(=O)O (stereo not shown) [pCPA, para-chlorophenylalanine]",reduction of peripheral (serum) serotonin,peripheral serotonin [1]; 4 week old mice,~50%
same,"serum serotonin levels, decrease below normal range","peripheral serotonin [1]; mice, oral, control inhibitor",> 60 % below normal range
same,crossing of the blood brain barrier,brain serotonin,did not cross the blood brain barrier
same,serotonin in the brain,brain serotonin,did not decrease
same,bone abnormalities (low bone phenotype) of Lrp5−/− mice,Lrp5−/− mice; [3],corrected
same,bone mass in WT mice,Lrp5−/− mice; [3],without overtly affecting
same,gut TPH1 mRNA,"Lrp5−/− mice; Lrp5−/− mice, 300 mg/kg i.p.",normalization
same,serum serotonin levels,"Lrp5−/− mice; Lrp5−/− mice, 300 mg/kg i.p., 300 mg/kg",normalizes; also recorded: normalization
same,Brain TPH2 mRNA levels,"Lrp5−/− mice; treated mice, 300 mg/kg i.p.",not affected
"O=C(O)CN(CC(=O)O)Cc1ccc(CN(CC(=O)O)CC(=O)O)c(O)c1O [CBMIDA, Catechol-3,6-bis methyleneiminodiacetic acid]",reduction of peripheral (serum) serotonin,peripheral serotonin [1]; 4 week old mice,~45%
same,reduction of peripheral serotonin,"peripheral serotonin [1]; 4 week old mice, 500 mg/kg orally twice in 20 hours",about 80%
same,"serotonin serum levels, decrease below normal","peripheral serotonin [1]; mice, 500 mg/kg orally twice daily",80 % below normal
same,peripheral serotonin,peripheral serotonin [1]; oral feeding (FIG. 11),reduces
"Nc1nc(OC(c2ccc(-c3cccc(F)c3)cc2)C(F)(F)F)cc(-c2ccc(OC[C@H](N)C(=O)O)cc2)n1 (stereo partly drawn) [(2S)-2-amino-3-(4-(2-amino-6-(2,2,2-trifluoro-1-(3′-fluorobiphenyl-4-yl)ethoxy)pyrimidin-4-yl)phenoxy)propanoic acid]",Peripheral serotonin (ng/ml) (mean ± SEM),peripheral serotonin [2],93.77 ± 12.15 ng/mL
"COC(=O)C(=O)Nc1ccc(-c2cc(OC(c3ccc(-c4cccc(F)c4)cc3)C(F)(F)F)nc(N)n2)cc1 (stereo not shown) [Methyl 2-(4-(2-amino-6-(2,2,2-trifluoro-1-(3′-fluorobiphenyl-4-yl)ethoxy)pyrimidin-4-yl)phenylamino)-2-oxoacetate]",Peripheral serotonin (ng/ml) (mean ± SEM),peripheral serotonin [2],23.76 ± 8.25 ng/mL
B1,number of osteoclasts per bone surface (OcS/BS) versus untreated ovariectomized rats,ovariectomized rats,similar
same,decrease in cortical thickness at the femur mid-shaft,ovariectomized rats; [4],equally rescued
same,"maximal load (femur, vertebra)",ovariectomized rats; [4],restored to values seen in sham-operated rats
same,"stiffness (femur, vertebra)",ovariectomized rats; [4],restored to values seen in sham-operated rats
